Usually melting point stands for the temperature of the solid-liquid transition.

`COc1ccc(C(=O)Nc2ccc3ccc(Oc4ccc(Cl)c(Cl)c4)nc3n2)cc1` registered a melting point of 180 °C.
The result for `CC(C)OC(=O)c1c(S(C)(=O)=O)ccc(C(=O)O)c1Cl` reads 114 to 118 °C; that for `CC(=O)OCc1nc2sc(S(N)(=O)=O)cc2c(=O)n1-c1ccccc1Cl`, 192 to 194 °C; that for `CC1=C(C)C(=O)N(c2ccc(Cl)c(C=C(Cl)C#N)c2)C1=O`, 139 to 140 °C.
With `Cc1nc2n(c(=O)c1CCN1CCN(c3noc4cc(F)ccc34)CC1)CCS2` the figure was 193 °C; with `Cc1ccc(C(=O)Nc2c(NC(=O)CN3CCCCC3)ccc3c2C(=O)c2ccccc2C3=O)cc1`, 213 to 214 °C; with `Cc1ccc(-c2nc(Cl)cc(-c3ccccc3)n2)cc1`, 86 to 87 °C.
With `CCCCc1c(C(=O)OCC)cc(OC(C)=O)c2c(OC)cccc12` the figure was 86 to 88 °C.
The compound `O=C(c1ccccc1)C1CCN(CCN(C(=O)c2ccc([N+](=O)[O-])cc2)c2cccnc2)CC1` showed a melting point of 134 to 136 °C.
The result for `CCOC(=O)c1c(-c2cccc(Cl)c2)noc1C` reads 71 to 73 °C; that for `C=Cc1cnc2c([N+](=O)[O-])cccc2c1`, 116 to 117 °C; that for `CC(CCC=CC(=O)O)C1CCC2C3CCC4CC(O)CCC4(C)C3CC(O)C12C` (stereo unspecified), 204 to 208 °C.
The result for `COC(=O)C1=C(C)Nc2nccn2C1c1ccccn1` (stereo unspecified) reads 224 to 226 °C; that for `CCCOC(=N)c1sc2ccccc2c1O`, 185 °C.
With `Fc1ccc(-c2nc(SC(F)(F)C(F)F)[nH]c2-c2cccs2)cc1` the figure was 164 to 168 °C; with `COc1ccc2cc([C@H](C)C(=O)OC(C)C(=O)NCC(=O)O)ccc2c1` (stereo partly specified), 174 to 175 °C.
The compound `NS(=O)(=O)c1ccc(NN=C2C(=O)Nc3ccc(C(=O)NCCCO)cc32)cc1` had a melting point greater than 230 °C.
The result for `O=C1C2C(C(=O)N1c1ccccc1S)C1(Cl)C(Cl)=C(Cl)C2(Cl)C1(Cl)Cl` (stereo unspecified) reads 195 to 198 °C.
With `CCOC(=O)COC(=O)c1cc2c(cn1)[nH]c1ccccc12` the figure was 165 to 168 °C; with `CCCC1=C(C#N)C(c2ccccc2Cl)c2c(n[nH]c2-c2ccccc2)N1` (stereo unspecified), 262 °C; with `COC(=O)c1cc(N)c(F)c(-c2ccc(Cl)c(OC)c2F)n1`, 204 to 206 °C.
The result for `COc1cccc(-c2nn(Cc3ccccc3)c3ncnc(O)c23)c1` reads 183 to 185 °C.
The compound `COCCOc1cc(NC(=O)OC(C)(C)C)c(NC(=O)CC(=O)c2cccc(C#N)c2)cc1C#Cc1ccccc1` registered a melting point of 175 to 176 °C.
With `Cn1nc(SCSc2nn(C)c3ccc(Cl)cc3c2=O)c(=O)c2cc(Cl)ccc21` the figure was 352 to 354 °C; with `CC(C)(C)OC(=O)N1CCc2[nH]c3cccc(Br)c3c2CC1`, 223 to 225 °C.
The result for `CC1(c2ccc(F)c(S(N)(=O)=O)c2)OCCO1` reads 149 to 150 °C; that for `COc1c(CBr)nc2sc(Cl)cn2c1=O`, 160 to 162 °C; that for `CCOP(=O)(OCC)N1CCN(c2cc3c(cc2F)c(=O)c(C(=O)OCCOC)cn3C2CC2)CC1`, 138 to 141 °C.
The result for `CCOC(=O)c1cnoc1-c1cc(Cl)c(Cl)s1` reads 120 to 121 °C.
As to `Cc1cc(C=CC(=O)O)c(Cl)nc1C`, the melting point was in the range of 150 to 158 °C.
With `CC(=O)Nc1ccc(C(C)(C)C)cc1CN(C)C1CCCCC1` the figure was 111 to 112 °C; with `N#Cc1cc(-c2nc3cncnc3s2)ccc1Sc1cccc(F)c1`, 189 to 190 °C.
With `CNC(=O)c1cc2c(Oc3ccc(-n4cccn4)cc3)cncc2s1` the figure was 192 to 194 °C; with `O=c1c(Br)cc2cnc(Nc3ccccn3)nc2n1C1CCCC1`, 273 to 275 °C.
With `CC(C)(C)C(=O)Nc1cccc(C(F)(F)F)c1` the figure was 107 °C; with `OC1(c2ccc(Br)cc2)CCC2(CC1)OCCO2`, 156 to 158 °C.
